Experimental data taken from patent US20130131075A1, “NEW COMPOUNDS” (Boehringer Ingelheim International GmbH, priority 2009, published 2013).

Molecular target: T1, cynomolgus BK1-receptor (Macaca fascicularis, UniProt Q3BCU0)
T1 construct: expressed in transfected cells; host or cells: CHO cells (homogenate)
T1 sequence (Q3BCU0 1-352): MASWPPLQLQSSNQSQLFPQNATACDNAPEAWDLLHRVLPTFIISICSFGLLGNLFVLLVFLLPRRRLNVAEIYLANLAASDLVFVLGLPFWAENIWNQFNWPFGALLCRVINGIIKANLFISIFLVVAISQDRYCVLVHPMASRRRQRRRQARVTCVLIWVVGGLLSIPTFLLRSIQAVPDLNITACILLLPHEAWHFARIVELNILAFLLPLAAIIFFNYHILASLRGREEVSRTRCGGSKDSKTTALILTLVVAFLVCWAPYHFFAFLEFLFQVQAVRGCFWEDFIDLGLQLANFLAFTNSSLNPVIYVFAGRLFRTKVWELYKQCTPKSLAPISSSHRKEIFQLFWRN
Experiment: cynoBK1-receptor binding assay
Conditions: CHO cells expressing cynomolgus BK1-receptor, radioligand kallidine (DesArg10,Leu9); for inhibition at 10 µM: at 10 μgmol/L
Outline: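 Radioligand competition on homogenates of CHO cells expressing cynomolgus BK1 receptor (50 to 250 μg protein/assay), incubated 60-180 minutes at ambient temperature with 0.5 to 5.0 nM [3H]kallidine (DesArg10,Leu9) plus increasing test compound. Filtration binding; non-specific defined with 1.0 μM kallidine (DesArg10); Ki from non-linear curve fitting.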

Ki [nM]	inhibition at 10 µM [%]	SMILES
> 500	64	NC(=O)c1ccc(Nc2ccc(CNC(=O)C3(NC(=O)c4cncnc4)CC3)nc2)c(C(F)(F)F)c1 [(198)]
402		CC(C)c1ccc(Nc2ccc(CNC(=O)C3(NC(=O)c4cncnc4)CC3)nc2)c(C(F)(F)F)c1 [(204)]
93		COc1cncc(C(=O)N[C@@]2(C(=O)NCc3ccc(Nc4ccc(F)cc4C(F)(F)F)cc3)CCOC2)c1 [(381)]
3.8	112	O=C(NC1(C(=O)NCc2ccc(Nc3ccc(Br)cc3C(F)(F)F)cn2)CC1)c1cncnc1 [(54)]
	103	COc1cccc(C(=O)N[C@@]2(C(=O)NCc3ccc(Nc4ccccc4C(F)(F)F)cc3)CCOC2)c1 [(100)]
33	112	CC(NC(=O)C1(NC(=O)c2cncc(N)c2)CC1)c1ccc(Nc2c(F)cccc2C(F)(F)F)cn1 (stereo not shown) [(124)]
> 500	96	Cc1ccc(Nc2ccc(CNC(=O)C3(NC(=O)c4cncnc4)CC3)nc2)c(Cl)c1 [(189)]
	99	O=C(NC1(C(=O)NCc2ccc(Nc3ccccc3C(F)(F)F)cc2)CC1)C1CC1 [(15)]
13	111	O=C(CC(F)(F)F)NC1(C(=O)NCc2ccc(Nc3ccc(F)cc3C(F)(F)F)cc2)CC1 [(30)]
3.9		CCNc1ncc(C(=O)NC2(C(=O)NCc3ccc(Nc4ccc(F)cc4C(F)(F)F)cn3)CC2)cn1 [(247)]
42		CC(C#N)C(=O)NC1(C(=O)NCc2ccc(Nc3ccc(Cl)cc3C(F)(F)F)cn2)CC1 (stereo not shown) [(368)]
25		O=C(NC1(C(=O)NCc2ccc(Nc3ccc(Cl)cc3C(F)(F)F)cn2)CC1)c1cccc(O)n1 [(211)]
118	108	Nc1cc(C(=O)N[C@@]2(C(=O)NCc3ccc(Nc4ccccc4C(F)(F)F)cc3)CCOC2)ccn1 [(63)]
	100	O=C(CC(F)(F)F)NC1(C(=O)NCc2ccc(Nc3ccccc3C(F)(F)F)cc2)CC1 [(7)]
5.5		O=C(NC1(C(=O)NCc2ccc(Nc3ccc(Cl)cc3C(F)(F)F)cn2)CC1)c1cnc(NC2CC2)nc1 [(379)]
365	103	Cc1cccc(C(F)(F)F)c1Nc1ccc(CNC(=O)C2(NC(=O)c3cncnc3)CC2)nc1 [(49)]
225		O=C(N[C@@]1(C(=O)NCc2ccc(Nc3ccc(F)cc3C(F)(F)F)cc2)CCOC1)c1cnc2[nH]ccc2c1 [(383)]
45		COc1ncc(C(=O)N[C@@]2(C(=O)NCc3ccc(Nc4ccc(F)cc4C(F)(F)F)cc3)CCOC2)cn1 [(300)]
	92	O=C(NC1(C(=O)NCc2ccc(Nc3c(F)cccc3Cl)cn2)CC1)c1cncnc1 [(200)]
	89	O=C(NC1(C(=O)NCc2ccc(Nc3cc(F)ccc3C(F)(F)F)cn2)CC1)c1cncnc1 [(42)]
	91	CCCCC(=O)NC1(C(=O)NCc2ccc(Nc3ccccc3C(F)(F)F)cc2)CC1 [(16)]
	80	O=C1CCC(C(=O)N[C@@]2(C(=O)NCc3ccc(Nc4ccccc4C(F)(F)F)cc3)CCOC2)CN1 (stereo partly shown) [(76)]
7.8		O=C(N[C@@]1(C(=O)NCc2ncc(Nc3ccc(F)cc3C(F)(F)F)cc2Cl)CCOC1)c1cncnc1 [(216)]
100	108	O=C(N[C@@]1(C(=O)NCc2ccc(Nc3ccccc3C(F)(F)F)cc2)CCOC1)c1ccnc(O)c1 [(86)]
0.7	115	COc1ccc(Nc2ccc(CNC(=O)C3(NC(=O)c4cncnc4)CC3)nc2)c(C(F)(F)F)c1 [(50)]
56	96	Nc1cncc(C(=O)N[C@@]2(C(=O)NCc3ccc(Nc4ccc(F)cc4C(F)(F)F)cn3)CCOC2)c1 [(157)]

Ki [nM]	inhibition at 10 µM [%]	SMILES
374		O=C(NC1(C(=O)NCc2ccc(Nc3c(F)cc(Br)cc3Cl)cn2)CC1)c1cncnc1 [(325)]
25	100	O=C(NC1(C(=O)NCc2ccc(Nc3ccccc3Cl)cc2)CC1)c1cncnc1 [(2)]
> 500	82	COC(=O)c1ccc(Nc2ccc(CNC(=O)C3(NC(=O)c4cncnc4)CC3)nc2)c(C(F)(F)F)c1 [(196)]
6.6		COc1ncc(C(=O)N[C@@]2(C(=O)NCc3ncc(Nc4ccc(F)cc4C(F)(F)F)cc3F)CCOC2)cn1 [(238)]
63	96	CN(C)c1ncc(C(=O)NC2(C(=O)NCc3ccc(Nc4ccc(Br)cc4C(F)(F)F)cn3)CC2)cn1 [(175)]
> 500	42	O=C(O)c1ccc(Nc2ccc(CNC(=O)C3(NC(=O)c4cncnc4)CC3)nc2)c(C(F)(F)F)c1 [(195)]
5.5		Cc1ncc(C(=O)NC2(C(=O)NCc3ncc(Nc4ccccc4C(F)(F)F)cc3C)CC2)cn1 [(374)]
27		Nc1cncc(C(=O)N[C@@]2(C(=O)NCc3ncc(Nc4ccccc4C(F)(F)F)cc3Cl)CCOC2)c1 [(229)]
28		O=C(NC1(C(=O)NCc2ccc(Nc3ccc(F)cc3C(F)(F)F)cn2)CC1)c1cncc(C(F)(F)F)c1 [(340)]
	20	CCN(c1ccccc1)c1ccc(CNC(=O)C2(NC(=O)c3cncnc3)CC2)cc1 [(111)]
24		O=C(NC1(C(=O)NCc2ccc(Nc3ccc(Cl)cc3C(F)(F)F)cn2)CC1)c1cncc(F)c1 [(351)]
	96	Cn1ccc(C(=O)NC2(C(=O)NCc3ccc(Nc4ccc(Cl)cc4C(F)(F)F)cn3)CC2)cc1=O [(148)]
2.8	107	Cc1ncc(C(=O)NC2(C(=O)NCc3ccc(Nc4ccc(Br)cc4C(F)(F)F)cn3)CC2)cn1 [(139)]
257		O=C(NC1(C(=O)NCc2ccc(Nc3ccc(F)cc3C(F)(F)F)cn2)CC1)c1ccc(C(F)(F)F)nc1 [(254)]
126	97	Nc1cncc(C(=O)NC2(C(=O)NCc3ccc(Nc4ccc(F)cc4C(F)(F)F)cn3)CC2)n1 [(144)]
68		Nc1cncc(C(=O)N[C@@]2(C(=O)NCc3ccc(Nc4ccc(Br)cc4C(F)(F)F)cn3)CCOC2)c1 [(222)]
504		O=C(NC1(C(=O)NCc2ccc(Nc3c(F)cccc3Br)cn2)CC1)c1cncnc1 [(326)]
	67	Cn1ccnc1C(=O)NC1(C(=O)NCc2ccc(Nc3ccccc3C(F)(F)F)cc2)CC1 [(18)]
73		O=C(NC1(C(=O)NCc2ccc(Nc3ccc(Cl)cc3C(F)(F)F)cn2)CC1)c1ccnnc1 [(209)]
4.4	107	Cc1ncc(C(=O)NC2(C(=O)NCc3ccc(Nc4ccc(Cl)cc4C(F)(F)F)cn3)CC2)cn1 [(147)]
	99	Nc1ncc(C(=O)NC2(C(=O)NCc3ccc(Nc4ccc(F)cc4C(F)(F)F)cn3)CC2)s1 [(184)]
316		Nc1ccc(C(=O)N[C@@]2(C(=O)NCc3ccc(Nc4ccc(Cl)cc4C(F)(F)F)cc3)CCOC2)cn1 [(318)]
	80	CN1CC(C(=O)N[C@@]2(C(=O)NCc3ccc(Nc4ccccc4C(F)(F)F)cc3)CCOC2)CC1=O (stereo partly shown) [(71)]
22		Cc1cc(Nc2ccc(F)cc2C(F)(F)F)cnc1CNC(=O)[C@]1(NC(=O)c2cncnc2)CCOC1 [(324)]
187		CN(C)c1ncc(C(=O)NC2(C(=O)NCc3ccc(Nc4ccc(Cl)cc4C(F)(F)F)cn3)CC2)cn1 [(210)]
200	93	CS(=O)(=O)c1ccc(Nc2ccc(CNC(=O)C3(NC(=O)c4cncnc4)CC3)cc2)c(C(F)(F)F)c1 [(32)]
